This note sets out measurements from patent publication US20060069064A1, “Methods for facilitating recovery of functions of endogenous or implanted or transplanted stem cells using hyaluronic acid” (priority 2003, published 2006).

Series [1] has as its system 5-FU-treated mice. The following applies: mouse, in vivo. As to the method: 5-FU was intraperitoneally injected in mice at 150 mg/kg. The counts of white blood cells (WBC), red blood cells (RBC), platelets (PLT), hemoglobin (HGB) and hematocrit (HCT) were monitored daily for two weeks. As expected, the treatment of mice with 5-FU induced severe bone marrow hypoplasia and pancytopenia. The numbers of WBC and PLT dropped from 8.4±1.5×10^6/ml and 678.4±82×10^6/ml before 5-FU administration to 2.52±0.5×10^6/ml and 388±50×10^6/ml, respectively, 7 days later (FIGS. 1A, B). The total number of mononuclear cells in the bone marrow decreased from 15.3±2.2×10^6/femur before to 5.00±0.65×10^6/femur 7 days after 5-FU administration (FIG. 2A). All parameters were recovered to normal in 14 days after 5-FU administration. To examine the effect of HA on 5-FU-perturbed hematopoiesis, 5-FU-treated (day 0) mice were administered 100 μg/mouse HA as a 0.05% solution in PBS (HA from Sigma-Aldrich, Catalog No.: H1751) on days 4, 6, 10, and 13. A control group of animals was treated with a 200-μl injection of PBS. The peripheral blood from HA- and PBS-treated mice was collected daily and examined for numbers of WBC, RBC, PLT, HGB, and HCT. […] The number of PLT in HA-treated mice was increased starting from day 5 and was elevated by a factor of 1.7 on day 8 (FIG. 1B). […]

The subject of series [2] is 5-FU-treated mice. In words: Bone marrow hematopoiesis in 5-FU-treated mice (cell counts, morphological analysis). The class given is in vivo. Particulars: 7 days after 5-FU 150 mg/kg i.p.; 15.3±2.2 before. As to the method: Because mature blood cells are a product of proliferation and differentiation of hematopoietic progenitors, we next examined the effect of HA on bone marrow hematopoiesis in 5-FU-treated mice. 5-FU-treated mice (day 0) were administered PBS or 100 μg/mouse HA (as a 0.05%solution in PBS) on day 4, 6, 10, and 13. Bone marrow cells were harvested on days 7, 14, 21, and 28. On day 7 the total number of bone marrow cells in the HA-treated mice was 3.5-fold higher in comparison to the PBS-treated mice (FIG. 2A). To evaluate the effect of HA on different hematopoietic lineages, a morphological analysis of the bone marrow cells was performed as followed. […]
To examine this assumption, bone marrow cells were cultured in methylcellulose to evaluate the number of proliferating lineage-committed progenitors. […] Colonies containing more then 20 cells were counted under the inverted microscope after 7 days of culture. […] Colonies containing at least 500 cells were counted after 14 days. […] We next investigated whether HA stimulation benefited the pool of committed progenitors at the cost of damaging more primitive progenitors that were measured by using a long-term culture-initiating cells (LTC-IC) assay. The number of LTC-IC in the bone marrow of mice treated with HA was evaluated using a limited dilution assay. […]

For the molecule `O=c1[nH]cc(F)c(=O)[nH]1` [5-FU, 5-fluorouracil], the “time until all parameters recovered to normal after 5-FU administration” value in the series with 5-FU-treated mice [1] is on record as 14 days. The “total number of mononuclear cells in the bone marrow” value in the series on 5-FU-treated mice [2] is 5.00±0.65 ×10^6/femur.
